{
  "source": "ChEMBL document CHEMBL4052776",
  "about": "“Discovery of 3-morpholino-imidazole[1,5-a]pyrazine BTK inhibitors for rheumatoid arthritis” (Bioorg Med Chem Lett, 2017)",
  "key": {"[1]": {"molecular_target": "Tyrosine-protein kinase Lyn (Homo sapiens, UniProt P07948)", "sequence (P07948 whole entry)": "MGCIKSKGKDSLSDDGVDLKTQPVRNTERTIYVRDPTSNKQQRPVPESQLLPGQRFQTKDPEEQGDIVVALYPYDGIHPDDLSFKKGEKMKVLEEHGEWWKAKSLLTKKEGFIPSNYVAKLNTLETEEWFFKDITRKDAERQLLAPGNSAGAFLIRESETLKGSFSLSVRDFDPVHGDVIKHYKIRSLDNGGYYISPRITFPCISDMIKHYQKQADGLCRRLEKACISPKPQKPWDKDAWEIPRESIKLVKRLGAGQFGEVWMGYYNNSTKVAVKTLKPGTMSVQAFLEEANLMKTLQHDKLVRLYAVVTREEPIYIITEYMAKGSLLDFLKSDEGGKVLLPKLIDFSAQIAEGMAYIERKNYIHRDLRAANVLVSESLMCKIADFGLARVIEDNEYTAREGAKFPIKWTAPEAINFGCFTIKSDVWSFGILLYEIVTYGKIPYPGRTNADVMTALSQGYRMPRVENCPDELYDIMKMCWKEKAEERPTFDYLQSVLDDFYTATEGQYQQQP", "experiment": "Inhibition of LYNB (unknown origin)"}, "[2]": {"molecular_target": "T1, Tyrosine-protein kinase TXK (Homo sapiens, UniProt P42681)", "T1 sequence (P42681 whole entry)": "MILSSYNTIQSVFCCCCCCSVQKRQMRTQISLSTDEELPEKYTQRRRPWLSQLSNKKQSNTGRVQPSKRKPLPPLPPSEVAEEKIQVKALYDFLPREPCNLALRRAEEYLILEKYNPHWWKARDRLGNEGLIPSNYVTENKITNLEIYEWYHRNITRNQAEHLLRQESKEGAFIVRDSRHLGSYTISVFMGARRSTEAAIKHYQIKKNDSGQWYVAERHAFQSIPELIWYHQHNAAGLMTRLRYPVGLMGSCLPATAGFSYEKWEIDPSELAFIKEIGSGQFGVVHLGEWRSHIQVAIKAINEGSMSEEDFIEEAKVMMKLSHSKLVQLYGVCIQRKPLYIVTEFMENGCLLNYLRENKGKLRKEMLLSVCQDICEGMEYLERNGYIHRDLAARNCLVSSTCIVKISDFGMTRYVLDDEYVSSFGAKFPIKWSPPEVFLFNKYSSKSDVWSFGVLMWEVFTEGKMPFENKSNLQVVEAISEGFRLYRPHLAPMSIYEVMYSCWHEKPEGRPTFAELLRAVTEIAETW", "experiment": "Inhibition of TXK (unknown origin)"}, "[3]": {"species_on_record": "Homo sapiens", "experiment": "Selectivity ratio of IC50 for LYNB (unknown origin) to IC50 for BTK (unknown origin)"}, "[4]": {"molecular_target": "Proto-oncogene tyrosine-protein kinase Src (Homo sapiens, UniProt P12931)", "sequence (P12931 2-536 limits assumed)": "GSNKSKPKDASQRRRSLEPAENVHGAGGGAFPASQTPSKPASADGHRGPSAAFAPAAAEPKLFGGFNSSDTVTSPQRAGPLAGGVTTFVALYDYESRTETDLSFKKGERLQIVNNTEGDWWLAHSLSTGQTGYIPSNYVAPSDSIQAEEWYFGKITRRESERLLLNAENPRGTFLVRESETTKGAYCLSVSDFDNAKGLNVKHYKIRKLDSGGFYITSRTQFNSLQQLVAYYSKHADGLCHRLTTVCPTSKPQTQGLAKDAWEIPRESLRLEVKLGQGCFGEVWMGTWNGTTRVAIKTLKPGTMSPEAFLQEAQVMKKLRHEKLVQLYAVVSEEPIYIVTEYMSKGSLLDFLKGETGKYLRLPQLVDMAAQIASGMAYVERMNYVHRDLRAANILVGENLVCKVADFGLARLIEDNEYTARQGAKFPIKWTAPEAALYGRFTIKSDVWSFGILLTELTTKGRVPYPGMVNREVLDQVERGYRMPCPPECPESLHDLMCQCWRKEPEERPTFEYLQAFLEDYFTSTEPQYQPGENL", "experiment": "Inhibition of SRC (unknown origin)"}, "[5]": {"molecular_target": "Tyrosine-protein kinase FRK (Homo sapiens, UniProt P42685)", "sequence (P42685 whole entry)": "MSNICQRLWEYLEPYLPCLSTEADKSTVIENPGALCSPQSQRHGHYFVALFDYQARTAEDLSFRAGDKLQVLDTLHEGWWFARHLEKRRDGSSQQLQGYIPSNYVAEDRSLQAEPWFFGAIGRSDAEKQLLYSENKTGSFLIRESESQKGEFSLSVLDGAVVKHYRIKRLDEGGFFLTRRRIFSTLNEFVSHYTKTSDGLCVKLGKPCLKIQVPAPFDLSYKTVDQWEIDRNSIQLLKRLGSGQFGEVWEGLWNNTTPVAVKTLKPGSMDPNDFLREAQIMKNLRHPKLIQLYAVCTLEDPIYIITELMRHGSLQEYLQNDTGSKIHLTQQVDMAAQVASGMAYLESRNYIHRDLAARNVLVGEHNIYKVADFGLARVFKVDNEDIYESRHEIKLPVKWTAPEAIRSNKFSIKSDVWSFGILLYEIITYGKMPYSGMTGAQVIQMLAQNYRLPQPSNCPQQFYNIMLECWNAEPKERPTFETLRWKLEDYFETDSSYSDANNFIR", "experiment": "Inhibition of FRK (unknown origin)"}, "[6]": {"species_on_record": "Homo sapiens", "experiment": "Selectivity ratio of IC50 for CSK (unknown origin) to IC50 for BTK (unknown origin)"}},
  "data": [
    {"smiles": "CC(C)C(=O)N1CCO[C@@H](c2nc(-c3ccc(C(=O)Nc4cc(C(F)(F)F)ccn4)cc3F)c3c(N)nccn23)C1", "values": [
      {"measurement": "IC50", "setting": "[1]", "result": 1050, "unit": "nM"},
      {"measurement": "IC50", "setting": "[2]", "result": 464, "unit": "nM"},
      {"measurement": "Ratio IC50", "setting": "[3]", "result": 2380},
      {"measurement": "IC50", "setting": "[4]", "result": 512, "unit": "nM"},
      {"measurement": "IC50", "setting": "[5]", "result": 706, "unit": "nM"},
      {"measurement": "Ratio IC50", "setting": "[6]", "result": 4880}
    ]}
  ]
}
